Data taken from ChEMBL document CHEMBL5380816, “Inclusion of Nitrofurantoin into the Realm of Cancer Chemotherapy via Biology-Oriented Synthesis and Drug Repurposing” (J Med Chem, 2023).
Activity calls are given as the source filed them. The rule behind the calls is not given here.

Key:
HeLa [1] = assay: Anticancer activity against human HeLa cells assessed as losing contact with neighbouring cells incubated at 0.11 uM for 72 hrs by phase contrast inverted microscopic analysis; assay type: functional, cell-based
Caco-2 [2] = assay: Induction of apoptosis in human Caco-2 cells assessed as early apoptotic cells incubated at 0.11 uM for 72 hrs by annexin V-FITC based propidium iodide dual staining assay (reference value: 0.07%); assay type: functional
MCF7 [3] = assay: Induction of apoptosis in human MCF7 cells assessed as viable cells incubated at 0.11 uM for 72 hrs by annexin V-FITC based propidium iodide dual staining assay (reference value: 99.9%); assay type: functional; conditions: read-out: Activity
MCF7 [4] = assay: Induction of apoptosis in human MCF7 cells assessed as late apoptotic cells incubated at 0.11 uM for 72 hrs by annexin V-FITC based propidium iodide dual staining assay (reference value: 0.01%); assay type: functional
MCF7 [5] = assay: Induction of apoptosis in human MCF7 cells assessed as necrotic cells incubated at 0.11 uM for 72 hrs by annexin V-FITC based propidium iodide dual staining assay (reference value: 0.03%); assay type: functional
HeLa [6] = assay: Induction of apoptosis in human HeLa cells assessed as necrotic cells incubated at 0.11 uM for 72 hrs by annexin V-FITC based propidium iodide dual staining assay (reference value: 0%); assay type: functional
HepG2 [7] = assay: Induction of apoptosis in human HepG2 cells assessed as late apoptotic cells incubated at 0.11 uM for 72 hrs by annexin V-FITC based propidium iodide dual staining assay (reference value: 0.66%); assay type: functional
HepG2 [8] = assay: Induction of apoptosis in human HepG2 cells assessed as early apoptotic cells by measuring bright green patch incubated at 0.11 uM for 72 hrs by acridine orange-ethidium bromide dual staining based fluorescence microscopic analysis; assay type: functional, cell-based
HeLa [9] = assay: Induction of apoptosis in human HeLa cells assessed as late apoptotic cells by measuring orange to red patch incubated at 0.11 uM for 72 hrs by acridine orange-ethidium bromide dual staining based fluorescence microscopic analysis; assay type: functional, cell-based
HepG2 [10] = assay: Induction of oxidative stress in human HepG2 cells assessed as cell death by measuring redox alteration fluorescence incubated at 0.027 uM for 72 hrs in presence of dihydro dichlorofluorescein diacetate by DCFH-DA based flow cytometric analysis relative to control; assay type: functional
dsDNA [11] = assay: Induction of damage in dsDNA (unknown origin) assessed as disrupted by DNA by measuring decrease in fluorescence intensity at 100 uM incubated for 2.5 hrs by EvaGreen based fluorescence plate reader analysis; assay type: nucleic-acid assay
dsDNA [12] = assay: Induction of damage in dsDNA (unknown origin) assessed as DNA disruption by measuring amplitude at 100 uM incubated for 2.5 hrs by EvaGreen based fluorescence plate reader analysis; assay type: nucleic-acid assay
Calf thymus DNA = assay: Induction of calf thymus DNA damage assessed as disrupted by DNA by measuring decrease in fluorescence intensity at 200 uM by EvaGreen based fluorescence plate reader analysis; assay type: nucleic-acid assay; conditions: Bos taurus
Caco-2 [13] = assay: Anticancer activity against human Caco-2 cells incubated for 24 hrs by MTT assay; assay type: functional, cell-based; conditions: Caco-2, 24 h
MCF7 [14] = assay: Induction of apoptosis in human MCF7 cells assessed as late apoptotic cells incubated at 0.017 uM for 72 hrs by annexin V-FITC based propidium iodide dual staining assay (reference value: 0.01%); assay type: functional
HeLa [15] = assay: Induction of oxidative stress in human HeLa cells assessed as cell death by measuring redox alteration fluorescence incubated at 0.027 uM for 72 hrs in presence of dihydro dichlorofluorescein diacetate by DCFH-DA based flow cytometric analysis relative to control; assay type: functional
MCF7 [16] = assay: Induction of apoptosis in human MCF7 cells assessed as caspase3/7 activation at 0.017 uM using caspase-glo 3/7 as substrate relative to control; assay type: functional
HeLa [17] = assay: Anticancer activity against human HeLa cells assessed as smaller cells incubated at 0.098uM for 72 hrs by phase contrast inverted microscopic analysis; assay type: functional, cell-based
HeLa [18] = assay: Anticancer activity against human HeLa cells assessed as round cells incubated at 0.098uM for 72 hrs by phase contrast inverted microscopic analysis; assay type: functional, cell-based
HeLa [19] = assay: Anticancer activity against human HeLa cells assessed as absence of normal spindle shape incubated at 0.098uM for 72 hrs by phase contrast inverted microscopic analysis; assay type: functional, cell-based
Caco-2 [20] = assay: Induction of apoptosis in human Caco-2 cells assessed as early apoptotic cells by measuring bright green patch incubated at 0.098 uM for 72 hrs by acridine orange-ethidium bromide dual staining based fluorescence microscopic analysis; assay type: functional, cell-based
HeLa [21] = assay: Induction of apoptosis in human HeLa cells assessed as early apoptotic cells by measuring bright green patch incubated at 0.098 uM for 72 hrs by acridine orange-ethidium bromide dual staining based fluorescence microscopic analysis; assay type: functional, cell-based
Caco-2 [22] = assay: Induction of apoptosis in human Caco-2 cells assessed as late apoptotic cells by measuring orange to red patch incubated at 0.098 uM for 72 hrs by acridine orange-ethidium bromide dual staining based fluorescence microscopic analysis; assay type: functional, cell-based
HepG2 [23] = assay: Induction of apoptosis in human HepG2 cells assessed as late apoptotic cells by measuring orange to red patch incubated at 0.098 uM for 72 hrs by acridine orange-ethidium bromide dual staining based fluorescence microscopic analysis; assay type: functional, cell-based
HeLa [24] = assay: Induction of oxidative stress in human HeLa cells assessed as cell death by measuring redox alteration fluorescence incubated at 0.11 uM for 72 hrs in presence of dihydro dichlorofluorescein diacetate by DCFH-DA based flow cytometric analysis relative to control; assay type: functional
Caco-2 [25] = assay: Anticancer activity against human Caco-2 cells assessed as round cells incubated at 0.097uM for 72 hrs by phase contrast inverted microscopic analysis; assay type: functional, cell-based
Caco-2 [26] = assay: Anticancer activity against human Caco-2 cells assessed as absence of normal spindle shape incubated at 0.097uM for 72 hrs by phase contrast inverted microscopic analysis; assay type: functional, cell-based
MCF7 [27] = assay: Anticancer activity against human MCF7 cells assessed as cell shrinkage incubated at 0.097uM for 72 hrs by phase contrast inverted microscopic analysis; assay type: functional, cell-based
MCF7 [28] = assay: Anticancer activity against human MCF7 cells assessed as absence of normal spindle shape incubated at 0.097uM for 72 hrs by phase contrast inverted microscopic analysis; assay type: functional, cell-based
HeLa [29] = assay: Anticancer activity against human HeLa cells assessed as cell shrinkage incubated at 0.097uM for 72 hrs by phase contrast inverted microscopic analysis; assay type: functional, cell-based
HepG2 [30] = assay: Anticancer activity against human HepG2 cells assessed as losing contact with neighbouring cells incubated at 0.097uM for 72 hrs by phase contrast inverted microscopic analysis; assay type: functional, cell-based
HeLa [31] = assay: Induction of apoptosis in human HeLa cells assessed as necrotic cells incubated at 0.097 uM for 72 hrs by annexin V-FITC based propidium iodide dual staining assay (reference value: 0%); assay type: functional
Caco-2 [32] = assay: Induction of apoptosis in human Caco-2 cells assessed as total apoptotic cells incubated at 0.097 uM for 72 hrs by annexin V-FITC based propidium iodide dual staining assay (reference value: 0.04 +/- 0.005%); assay type: functional
HeLa [33] = assay: Induction of apoptosis in human HeLa cells assessed as late apoptotic cells by measuring orange to red patch incubated at 0.097 uM for 72 hrs by acridine orange-ethidium bromide dual staining based fluorescence microscopic analysis; assay type: functional, cell-based
HeLa [34] = assay: Induction of oxidative stress in human HeLa cells assessed as cell death by measuring redox alteration fluorescence incubated at 0.097 uM for 72 hrs in presence of dihydro dichlorofluorescein diacetate by DCFH-DA based flow cytometric analysis relative to control; assay type: functional

`C#CCN1C(=O)CN(/N=C/c2ccc([N+](=O)[O-])o2)C1=O` was tested, and the Activity (HeLa [1]) was “Active”, the Activity (Caco-2 [2]) was 4.84% and the viability at 0.11 µM (MCF7 [3]) was 53.7%. It also gave an Activity (MCF7 [4]) of 34.7%, an Activity (MCF7 [5]) of 4.01% and an Activity (HeLa [6]) of 2.48%. The Activity (HepG2 [7]) was 59.49%, the Activity (HepG2 [8]) was “Active” and the Activity (HeLa [9]) was “Active”. For the same compound, the Activity (HepG2 [10]) was 54.19%, the Activity (dsDNA [11]) was “Active” and the Activity (dsDNA [12]) was 177. The Activity (Calf thymus DNA) was “Active” and the IC50 (Caco-2 [13]) was 89 µM.
With `O=c1[nH]cc(F)c(=O)[nH]1` [FLUOROURACIL] the Activity (MCF7 [14]) was 2.26%, the Activity (HeLa [15]) was 4.91% and the Activity (MCF7 [16]) was 12%.
For `O=C(CN1C(=O)CN(/N=C/c2ccc([N+](=O)[O-])o2)C1=O)c1ccc(Cl)cc1`, the Activity (HeLa [17]) was “Active”, the Activity (HeLa [18]) was “Active” and the Activity (HeLa [19]) was “Active”. For the same compound, the Activity (Caco-2 [20]) was “Active”, the Activity (HeLa [21]) was “Active” and the Activity (Caco-2 [22]) was “Active”. The Activity (HepG2 [23]) was “Active” and the Activity (HeLa [24]) was 32.41%.
For `NS(=O)(=O)c1ccc(-n2cc(CN3C(=O)CN(/N=C/c4ccc([N+](=O)[O-])o4)C3=O)nn2)cc1`, the Activity (Caco-2 [25]) was “Active”, the Activity (Caco-2 [26]) was “Active” and the Activity (MCF7 [27]) was “Active”. For the same compound, the Activity (MCF7 [28]) was “Active”, the Activity (HeLa [29]) was “Active” and the Activity (HepG2 [30]) was “Active”. The Activity (HeLa [31]) was 4.26%, the Activity (Caco-2 [32]) was 36.26% and the Activity (HeLa [33]) was “Active”. For the same compound, the Activity (HeLa [34]) was 53.5%.
